From PubChem BioAssay AID624491 (Broad Institute, 2012) come the findings set out here.

This assay deals with D54 ERlucT glycosylation luciferase reporter, luminescence, 24 h. Nature of the assay: N-linked glycosylation inhibitors, luciferase reporter, dose response, D54 ERlucT cells, luminescence, cherry-picks (AID 624491).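 Further: signal gain reflects blocked N-linked glycosylation of a luciferase reporter; actives raise luciferase signal so AC26 marks activators of the reporter.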

Structures are written as SMILES. The source made the active and inactive calls.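 How the source made its calls: active means fitted curve crossing a set activation limit at or below the highest valid dose tested; inconclusive means flat fit at 30 to 70% activation, or poor fit; inactive means the rest, including signal decreases.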

For the molecule `Cc1ccc(OCCN2C(=O)C(=O)c3cc(C)ccc32)cc1`, the AC26 was 2460 nM.

`Cc1cccn2c(=O)c3cc(C(=O)NCCN4CCOCC4)c(=N)n(CCc4ccccc4)c3nc12`: the AC26 is 8760 nM. For the molecule `COc1cccc(C2=NOC(C(=O)NCc3ccccc3)C2)c1` (centres undefined), the AC26 was 73.2 nM.

Regarding `COC(=O)C1=C(c2cc3ccccc3o2)C[C@@H]2CC[C@H]1N2C(=O)N1CCOCC1`, the AC26 was > 19500 nM (inactive). In the case of `CCc1ccc(OCC(=O)Nc2ccc(-c3cc4ccccc4oc3=O)c(OC)c2)cc1`, the AC26 was 3090 nM. The result for `Cc1ccc(/C=N/NC(=O)CCn2nc(C)cc2C)c(C)c1` reads 5510 nM.

As to `COc1cc(-c2nccc3cc4c(cc23)OCO4)cc(OC)c1OC`, the AC26 was 1490 nM. The value for `CCOC(=O)/C(=C/c1c(C)n(C)c2ccc([N+](=O)[O-])cc12)C(C)=O` was 4230 nM. In the case of `Cc1cc(=O)[nH]c2c(C)cc(S(=O)(=O)N3CCCCC3)cc12`, the AC26 is 4410 nM.

Consider `COc1cc(/C=C/C(=O)OCC(=O)NCc2ccc(F)cc2)ccc1O`, for which the AC26 is 1590 nM. The value for `COc1cccc(N2CCN(C(=O)c3[nH]c(C)c(C(C)=O)c3C)CC2)c1` was 1680 nM. The value for `OCCCCCN=c1cc(-c2ccccc2)oc2ccc(Cl)cc12` was 1970 nM; that for `CCOc1cc(CNc2ccc3cn[nH]c3c2)ccc1OC` was 1550 nM.

For `CCC12CCC3c4ccc(O)cc4CCC3C1CC(O)C2O` (centres undefined), the AC26 is 10000 nM. With `O=C(N/N=C/c1cccnc1)c1cc(-c2ccccc2OCc2ccccc2)n[nH]1`, the AC26 was 1890 nM. The result for `COc1ccccc1N1CCN(C(=O)c2[nH]c(C(F)(F)F)nc2-c2ccccc2)CC1` reads 2770 nM; that for `COc1cc2c(cc1OC)C(=O)N1[C@H]3c4cc(C)ccc4OC[C@@H]3[C@H](c3ccccc3)[C@]1(C)C(=O)N2`, 387 nM; that for `CO/N=C\CC(=O)Nc1ccc(Cl)cc1Cl`, 1070 nM. The value for `Cc1ccc(C(=O)N2C(CC(=O)Nc3ccc(Cl)cc3)C(=O)NC3CCCCC32)cc1` (centres undefined) was 12600 nM. The result for `COc1cc2c(cc1OC)C(c1ccccc1)N(C(=O)c1cccc(S(C)(=O)=O)c1)CC2` (centres undefined) reads 193 nM; that for `Cc1[nH]nc2c1C(c1ccc(-c3ccc(Cl)cc3)o1)C(C#N)=C(N)O2` (centres undefined), 1140 nM. Regarding `COc1ccc(CCCC(=O)NCc2ccccc2)cc1C`, the AC26 was 6540 nM. The result for `CCOC(=O)N1CCC(NC(=O)c2ccc3c(c2)N=C(C)c2c(C)ccc(C)c2S3)CC1` reads 441 nM; that for `CN(C)S(=O)(=O)c1ccc(N2CCCC2)c(C(=O)Nc2nc(-c3ccc(F)cc3)cs2)c1`, 1550 nM. For the molecule `COc1cc(C(=O)NC2CCN(C)CC2)ccc1Nc1ncc2c(n1)N(C1CCCCC1)CCC(=O)N2C`, the AC26 was 11.3 nM. The result for `C=C(C)[C@@]12OC3(c4ccccc4)O[C@@H]1C1[C@@H]4O[C@]4(CO)[C@@H](O)[C@]4(O)C(=O)C(C)=C[C@H]4[C@@]1(O3)[C@H](C)[C@H]2OC(=O)/C=C/C=C/c1ccccc1` (some centres undefined) reads less than 1.2 nM. As to `COC(=O)CNC(c1ccccc1)c1cc(Br)ccc1NC(=O)CCN1CCOCC1` (centres undefined), the AC26 is 4810 nM. The result for `COC(=O)[C@@H]1C[C@H]1[C@@H](NP(=O)(c1ccccc1)c1ccccc1)c1ccccc1` reads 3650 nM; that for `C=CCNc1nc2cc(-c3ccccc3C)sc2c(=O)n1C`, 2810 nM.

On to `COc1cc(-c2cc(OC)c(O)c(OC)c2)cc(OC)c1O`, for which the AC26 was 3600 nM. For the molecule `N=c1c(C(=O)NCc2ccco2)cc2c(=O)n3ccccc3nc2n1CCc1ccccc1`, the AC26 was 707 nM. The value for `COc1cccc(CNC(=O)COC(=O)c2ccc(-c3ccc(O)cc3)cc2)c1` was 685 nM.

In the case of `O=c1[nH]c(O)c(/C=C2/C=CC(c3cc(Cl)ccc3Cl)=N2)c(=O)[nH]1`, the AC26 is 2610 nM.

As for `NC(=O)c1cccc(-c2ccnc3c2CC(C(=O)NCc2ccccc2)O3)c1` (centres undefined), the AC26 is 2000 nM. The result for `Cc1cc(C)c(NC(=O)CSc2nc(COc3ccccc3)nc3ccccc23)c(C)c1` reads 5220 nM; that for `Cc1[nH][nH]c(=O)c1C(c1ccc(-c2ccc(F)cc2)o1)c1c(C)[nH][nH]c1=O`, 4090 nM. As to `COc1cc2nc(N(C)C)nc(N)c2cc1OC`, the AC26 is 3660 nM. Turning to `COc1ccc([C@@H]2[C@@H]3C(=O)N(C(C)(C)C)C(=O)[C@@H]3[C@]3(Cc4ccccc4)C(=O)N(c4cccc(Br)c4)C(=O)N23)cc1`, the AC26 is 1600 nM. In the case of `Nc1nc(-c2ccccc2)cc(-c2ccccc2O)n1`, the AC26 was 4980 nM. Turning to `COC(=O)C(=Cc1ccc(-c2ccsc2C(=O)OC)o1)C(=O)OC`, the AC26 was 9800 nM. The result for `c1ccc(CNc2nc(NCCc3ccncc3)c3sccc3n2)cc1` reads 1120 nM; that for `Cc1ccc(S(=O)(=O)N(C)C[C@H]2Oc3ccc(NC(=O)C4CCCCC4)cc3C(=O)N([C@H](C)CO)C[C@H]2C)cc1`, 1140 nM. Take `COc1ccccc1/C=N/NC(=O)CSc1cc(C)nc2ccccc12`: the AC26 was 2940 nM. With `O=C(C=Cc1ccccn1)c1ccccc1O`, the AC26 is 1250 nM. On to `Cc1ccc(-c2cc(C(=O)Nc3ccncc3)c3ccccc3n2)cc1`, for which the AC26 was 1910 nM. As to `O=C(CSc1c2c(nc3ccc(Cl)cc13)CCCC2)N1CCN(C(=O)c2ccco2)CC1`, the AC26 is 7690 nM. The result for `O=C(NCc1cccs1)C1CC(c2ccc(Cl)c(Cl)c2)=NO1` (centres undefined) reads 5400 nM; that for `O=C(NCCCN1CCOCC1)c1cc(-c2ccccc2)on1`, 5780 nM; that for `Cn1nc(-c2ccc(Cl)cc2)c2cc(C(=O)NC3CC3)sc21`, 6320 nM.

Turning to `Cc1cc(C)cc(-n2c3ccc(NC(=O)Cc4cccc5ccccc45)cc3c(=O)n2C)c1`, the AC26 is 1780 nM.

Consider `C[C@@]12C(=O)Nc3ccc(F)cc3C(=O)N1[C@H]1c3cc(Cl)ccc3OC[C@@H]1[C@@H]2c1ccccc1`, for which the AC26 was 1070 nM.

For `Cc1ccc2[nH]c(=O)c3cc(C(=O)NC(C)C)sc3c2c1`, the AC26 is 3990 nM. The result for `CCOC(=O)c1[nH]c(C)c(C(=O)Nc2ccc(C)c(F)c2)c1C` reads 5420 nM; that for `CS(=O)(=O)Nc1cccc(NC(=O)C2Cc3c(-c4ccccc4)ccnc3O2)c1` (centres undefined), 2360 nM. The result for `CCOC(=O)c1ccccc1Nc1cn(C(C)=O)c2ccccc12` reads 1790 nM. The result for `COc1ccccc1/C=C/C(=O)/C=C/c1ccccc1O` reads 696 nM. For `Clc1ccc(CSc2cnnc3ccccc23)cc1Cl`, the AC26 is 13500 nM.

`CCOC(=O)c1ccc(/C=C2/C=C(c3ccccc3)N(c3ccc(Cl)c(C(=O)O)c3)C2=O)cc1`: the AC26 is 1840 nM. `Cn1c(SCC(=O)c2ccc(F)cc2)ncc(C(=O)Nc2ccccc2)c1=O`: the AC26 is 4770 nM. The value for `CCOc1ccc(NC(=O)c2cc(OC)nc3ccccc23)cc1` was 284 nM; that for `COc1ccc(-n2c(NNC(C)=O)nc3sc4c(c3c2=O)CCCC4)cc1` was 6720 nM. The result for `COc1cc2c(cc1OC)C(c1cccs1)N(C(=O)c1ccncc1)CC2` (centres undefined) reads 3030 nM; that for `Cc1nc2c3cc(F)ccc3n(Cc3ccc(F)cc3)c2s1`, 11500 nM. On to `O=C(CN1CCC(O)(c2cccc(F)c2)CC1)NCCc1c[nH]c2ccccc12`, for which the AC26 was 1150 nM. The result for `COc1ccc(CCNc2c3ccccc3nc3ccccc23)cc1OC` reads 1040 nM. Consider `CN(C)CCCNc1c2c(nc3ccccc13)CCC2`, for which the AC26 is 9560 nM.

As to `C#CC[N+](C)(C)CCCCCCCCCCCC`, the AC26 was 7360 nM.

For `COc1c(Br)cc(Br)cc1/C=N/NC(=O)c1cccnc1`, the AC26 is 10200 nM.

As for `CCn1c2ccccc2c2cc(NC(=O)COC(=O)c3ccccc3F)ccc21`, the AC26 is 4200 nM. As for `COc1cc(OC)cc(C(=O)N2CC(=O)Nc3ccccc32)c1`, the AC26 is 565 nM. The value for `CC(C)Sc1ccccc1C(=O)Nc1ccc2c(c1)n(C)c(=O)n2C` was 4830 nM; that for `CCCCCCC(=O)N(O)C1CC(=O)N(c2ccc(Br)cc2)C1=O` (centres undefined) was 689 nM. The result for `CC(=O)Nc1cccc(-c2ccnc3c2CC(C)(C(=O)NCC2CC2)O3)c1` (centres undefined) reads 5110 nM; that for `O=C(N/N=C/c1ccc(F)cc1)c1sccc1OCc1ccc(F)cc1`, 1630 nM. On to `Cc1cccc2c1NC(=O)/C2=C\C(=O)c1cccs1`, for which the AC26 is 4260 nM.

With `Cc1nc(Nc2nc(-c3ccccc3)cc(=O)[nH]2)nc2ccccc12`, the AC26 was 1690 nM. The result for `N=c1c(S(=O)(=O)c2ccc(Cl)cc2)cc2c(=O)n3ccccc3nc2n1CCc1ccccc1` reads 122 nM; that for `CNC(=O)c1cccc(NC(=O)c2ccccc2OCc2ccccc2)c1`, 355 nM; that for `COc1ccc2c(c1)[C@H]1[C@H](CO2)[C@H](c2ccccc2)[C@]2(C)C(=O)Nc3cc(OC)c(OC)cc3C(=O)N12`, 13.1 nM. `CCN(CC)CCNC(=O)c1cc2c(=O)n(C)c3ccccc3c2s1`: the AC26 is 3940 nM. In the case of `CCOc1cc(-c2cc(-c3ccccc3)nc(N)c2C#N)ccc1O`, the AC26 was 2480 nM. The value for `COc1ccc(NC(=O)c2ccc([N+](=O)[O-])o2)cc1` was 1020 nM. Take `CCOc1ccc2[nH]c3c(N4CCc5ccccc5C4)ncnc3c2c1`: the AC26 was 3460 nM. For the molecule `CCCc1cc(C(=O)N/N=C/c2ccc(C)o2)c2ccccc2n1`, the AC26 was 1040 nM. The value for `COc1ccccc1N1CCN(S(=O)(=O)CCNC(=O)c2cc(OC)c(OC)c(OC)c2)CC1` was 3850 nM; that for `COc1ccc(Nc2nc(N)c(C(=O)c3ccc(OC)cc3)s2)cc1` was 483 nM. Turning to `COc1ccc(C=CC(=O)c2ccc(OC)c(OC)c2O)cc1OC`, the AC26 is 4390 nM. The value for `COc1cc(NC(=O)c2ccc(-c3c(C)noc3C)c3ccoc23)cc(OC)c1OC` was 3770 nM.

On to `Cn1nc(C(=O)Nc2cccc(S(=O)(=O)N3CCCC3)c2)c2ccccc2c1=O`, for which the AC26 was 666 nM. The result for `O=c1[nH]c(=O)n(C2CC(O)C(CO)O2)cc1I` (centres undefined) reads 880 nM.

On to `Cc1nc(SCC(=O)Nc2ccc(F)cc2)c(C#N)c(C)c1CC(=O)c1ccc(Br)cc1`, for which the AC26 was 1660 nM. In the case of `CC(C)Oc1ccccc1C1CC(=O)Nc2cc3c(cc21)OCCO3` (centres undefined), the AC26 is 844 nM. The value for `Cc1c(-c2cccc(Cl)c2)nc2ccccc2c1C(=O)OC/C(O)=C(\C#N)c1nc2ccccc2[nH]1` was 5750 nM; that for `NC(=O)CC(NC(=O)Cc1ccc(Br)cc1)c1ccc(NC2CCC2)c([N+](=O)[O-])c1` (centres undefined) was 2760 nM.
